# Data taken from paper PMC6173696, “Structural properties of a haemophore facilitate targeted elimination of the pathogen Porphyromonas gingivalis” (Nature Communications, 2018).
# Tests used:
# [1] = tested on: P. gingivalis wild-type W83; experiment: P8 growth inhibition under iron restriction (100 µM dipyridyl); assay type: cell-based, Porphyromonas gingivalis; settings: P8 at 1 µM (below the MIC)
# Excerpt: Fig. 5 A prototype DPIX-conjugated antibiotic binds HusA and inhibits P. gingivalis. a The chemical structure of the deuteroporphyrin-lysine-metronidazole adduct, P8. b NMR signal intensity changes (black) and ^1H^N CSPs (red/green) for HusA upon addition of P8 (measured from ^15N-HSQC spectra shown in Supplementary Figure 21). c In silico docking of P8 to the energy minimized structure of HusA (conformer set 1), with residues experiencing NMR signal loss (orange) or CSPs (red/green) mapped to the structure (colouring as described in Fig. 2d). d Scaled and corrected fluorescence at 335 nm during titration of 1 μM of HusA with increasing concentrations of P8, haemin or DPIX. e Comparison of P8 inhibitory effect towards P. gingivalis wild-type W83 and husA mutants using checkerboard analysis. Serial dilutions of antibiotics (horizontal axis) were applied to a 96-well plate with different P. gingivalis strains (vertical axis). Serial dilutions of DPIX were also supplemented into wild-type W83 group to evaluate the competitive effect against P8. Absorption at OD600 of each well was recorded after 24 h of incubation. The OD600 of each strain grown in the absence of antibiotics was defined as 100% growth, which was applied to normalise the reading collected from other wells. […] Recovered bacteria were determined by CFU count. […]
# HusA W130N = target: T1, HusA W130N (Porphyromonas gingivalis, UniProt Q7MSY3, W130N); experiment: Tryptophan fluorescence quenching assay, HusA mutant W130N; assay type: binding
# T1 sequence (Q7MSY3 24-218 W130N): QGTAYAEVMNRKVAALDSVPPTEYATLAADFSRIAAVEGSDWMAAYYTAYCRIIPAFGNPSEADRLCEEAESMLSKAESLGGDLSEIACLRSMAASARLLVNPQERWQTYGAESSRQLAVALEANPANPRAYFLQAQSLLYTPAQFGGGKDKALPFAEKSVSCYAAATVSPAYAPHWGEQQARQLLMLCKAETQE
# IsdH(Y642A) = target: T2, IsdH(Y642A) (Staphylococcus aureus, UniProt Q931P4, Y642A); assay type: physicochemical; settings: haemin bound to IsdH (Y642A)
# T2 sequence (Q931P4 41-891 Y642A): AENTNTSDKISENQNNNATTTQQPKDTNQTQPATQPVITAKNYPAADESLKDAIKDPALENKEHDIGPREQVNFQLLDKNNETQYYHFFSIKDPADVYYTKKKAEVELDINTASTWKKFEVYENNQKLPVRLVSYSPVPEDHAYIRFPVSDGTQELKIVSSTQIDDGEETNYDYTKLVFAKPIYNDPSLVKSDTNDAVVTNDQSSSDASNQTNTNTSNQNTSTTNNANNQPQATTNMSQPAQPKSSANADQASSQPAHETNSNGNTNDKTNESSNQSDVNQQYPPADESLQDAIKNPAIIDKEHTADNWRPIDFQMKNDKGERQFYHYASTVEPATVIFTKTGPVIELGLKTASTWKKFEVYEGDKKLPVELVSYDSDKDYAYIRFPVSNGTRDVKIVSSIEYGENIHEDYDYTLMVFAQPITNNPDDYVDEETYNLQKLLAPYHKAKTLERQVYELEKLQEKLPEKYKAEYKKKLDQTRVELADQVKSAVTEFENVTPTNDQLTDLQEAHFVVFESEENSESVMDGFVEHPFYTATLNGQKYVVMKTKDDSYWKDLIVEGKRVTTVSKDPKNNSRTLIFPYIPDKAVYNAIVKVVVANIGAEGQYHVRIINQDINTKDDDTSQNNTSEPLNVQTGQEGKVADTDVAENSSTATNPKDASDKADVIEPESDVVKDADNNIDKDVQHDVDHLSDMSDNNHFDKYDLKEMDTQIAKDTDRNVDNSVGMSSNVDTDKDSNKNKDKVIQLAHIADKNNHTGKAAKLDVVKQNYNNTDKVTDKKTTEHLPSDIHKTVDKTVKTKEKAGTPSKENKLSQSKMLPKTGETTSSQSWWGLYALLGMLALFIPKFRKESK
# Experimental: Supplementary Figure 16. Acid-alkaline transition in UV-vis spectra of various haem binding proteins. (Top) UV-visible spectra (units of wavelength are nm) used to generate the pH titration curves shown in Figure 2h and in the bottom panel. (Bottom) Acid-alkaline titration of 5 µM haemin in presence of 7 µM IsdH, 5 µM IsdB, 7 µM IsdH(Y642A) and 7 µM p22HBP. All proteins are in holo form. See Fig 2h legend for buffer conditions. Absorbance A600–A650 values are plotted except for IsdH and IsdB, for which A630–A600 is plotted (to avoid negative values). […]
# HusA = settings: previously reported; now considered far weaker; cited from earlier work
Structure (SMILES),susceptibility of W83 under iron restriction [1],reduction of haemin affinity compared to wild-type (HusA W130N) [%],pKa of acid-alkaline transition (IsdH(Y642A)),Kd (HusA) [nM]
CC1=Cc2cc3[nH]c(cc4nc(cc5[nH]c(cc1n2)cc5C)C(C)=C4CCC(=O)N[C@@H](CCCCNC(=O)OC(C)(C)C)C(=O)NCCn1c([N+](=O)[O-])cnc1C)c(CCC(=O)O)c3C [P8],susceptible,–,–,–
C=CC1=C(C)c2cc3[nH]c(cc4nc(cc5[nH]c(cc1n2)c(C)c5CCC(=O)O)C(CCC(=O)O)=C4C)c(C)c3C=C.[Fe+3] [haemin],–,> 50,5.9,~2
